Source: US7838580B2, “Salts of alkyl esters of carboxyethyl(alkyl)phosphinic acid” (Clariant Finance (BVI) Limited, priority 2006, dated 2010)

experiment: Differential thermal analysis (decomposition temperature); type: physicochemical; conditions: ° C. for 2% weight loss
Experimental: The decomposition temperature and the average particle diameter are determined on a flame retardant of the prior art—Exolit® OP 1230.

First: COC(=O)CCP(C)(=O)[O-].COC(=O)CCP(C)(=O)[O-].COC(=O)CCP(C)(=O)[O-].[Al+3] [Example 10, H3C—P(═O)(OAl1/3)—CH2—CH2—CO2CH3]
Second: COC(=O)CCP(C)(=O)[O-].COC(=O)CCP(C)(=O)[O-].[Mg+2] [Example 11, H3C—P(═O)(OMg1/2)—CH2—CH2—CO2CH3]
The “DTA (decomposition in differential thermal analysis)” value of the first is higher: 330 °C for the first, 282 °C for the second.

First: COC(=O)CCP(C)(=O)[O-].COC(=O)CCP(C)(=O)[O-].[Zn+2] [Example 12, H3C—P(═O)(OZn1/2)—CH2—CH2—CO2CH3]
Second: COC(=O)CCP(C)(=O)[O-].COC(=O)CCP(C)(=O)[O-].[Ca+2] [Example 13, H3C—P(═O)(OCa1/2)—CH2—CH2—CO2CH3]
The “DTA (decomposition in differential thermal analysis)” value of the first is higher: 334 °C for the first, 317 °C for the second.

With `CCCCCCCCOC(=O)CCP(C)(=O)[O-].CCCCCCCCOC(=O)CCP(C)(=O)[O-].[Zn+2]` [Example 14, H3C—P(═O)(OZn1/2)—CH2—CH2—CO2C8H17] the “DTA (decomposition in differential thermal analysis)” value was 323 °C.
